Experimental data from US9539315B2, “Methods, agents and peptides for inhibiting matrix metalloproteinase-2 signaling” (New York University, priority 2011, dated 2017).
Entries after “also recorded” stand apart in the source; their conditions may differ.

Legend:
human TLR-2 = target: T1, human TLR-2 (Homo sapiens, UniProt O60603); assay: HEK-Blue-hTLR2 NF-κB SEAP reporter assay; format: cell-based; conditions: MMP-2 5 mg/ml; twenty hours; with/without TLR2 blocking antibody
T1 construct: host or cells: HEK293 (HEK-Blue-hTLR2 cells)
T1 sequence (O60603 21-784): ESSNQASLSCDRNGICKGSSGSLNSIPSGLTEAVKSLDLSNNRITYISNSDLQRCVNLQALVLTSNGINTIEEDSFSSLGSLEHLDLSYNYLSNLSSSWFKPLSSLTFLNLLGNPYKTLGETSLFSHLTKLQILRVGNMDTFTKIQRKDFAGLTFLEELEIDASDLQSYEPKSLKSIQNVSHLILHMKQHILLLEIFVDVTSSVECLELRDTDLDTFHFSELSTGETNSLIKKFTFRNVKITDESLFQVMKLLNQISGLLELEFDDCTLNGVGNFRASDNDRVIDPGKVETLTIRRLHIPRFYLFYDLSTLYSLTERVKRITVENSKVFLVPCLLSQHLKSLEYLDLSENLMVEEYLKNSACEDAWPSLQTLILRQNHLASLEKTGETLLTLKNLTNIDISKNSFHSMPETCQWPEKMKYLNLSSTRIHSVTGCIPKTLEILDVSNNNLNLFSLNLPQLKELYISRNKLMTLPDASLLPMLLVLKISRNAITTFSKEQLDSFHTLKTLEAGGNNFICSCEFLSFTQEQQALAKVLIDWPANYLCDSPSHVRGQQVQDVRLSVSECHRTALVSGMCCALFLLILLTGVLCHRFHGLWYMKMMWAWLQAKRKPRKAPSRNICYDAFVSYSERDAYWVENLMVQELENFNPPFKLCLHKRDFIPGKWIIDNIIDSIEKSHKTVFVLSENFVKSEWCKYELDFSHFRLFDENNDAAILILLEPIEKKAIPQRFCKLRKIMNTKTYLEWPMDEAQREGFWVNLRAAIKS
Description: (§1) A) DCs were exposed to various TLR agonists for 2 days before cells were stained for OX40L. […] B) TLR2-transfected and engineered HEK cells were incubated with MMP-2 (5 mg/ml) or various controls. All conditions were also tested in the presence of a blocking antibody for TLR2. TNFα was used to activate NF-κB in a TLR-independent manner. Twenty hours later, NF-κB activation was measured.
TLR2-transfected and engineered HEK cells were incubated with MMP-2 (5 mg/ml), TLR2 agonists, recombinant PEX and 3 pools of overlapping 20-mers covering MMP-2. OLP1: mix of 22 overlapping peptides covering MMP-2 from amino-acid 1 to 220; OLP2: mix of 22 overlapping peptides covering MMP-2 from amino-acid 210 to 440; OLP3: mix of 22 overlapping peptides covering MMP-2 from amino-acid 450 to 660. Twenty hours later, NF-κB activation was measured. Neither PEX nor the peptides triggered NF-κB signaling.
TLR-2-transfected (stably) HEK-Blue™ Cells represent a very efficient high throughput reagent for screening due to an easy read-out. […] Levels of SEAP can be readily determined with QUANTI-Blue™, a detection medium that turns purple/blue in the presence of alkaline phosphatase. […] Inhibition of NF-κB activation by any agents/molecules can be assessed and confirmed in DCs (which endogenously express TLR2 or are engineered to express exogenous TLR2) in order to corroborate the initial screening results in a native or more natural context. […] TLR-2-expressing cells, such as those described herein, can be incubated with agents/molecules and molecular interactions assessed using methods, such as, e.g., co-immunoprecipitation of MMP-2 and TLR-2 from the cell lysates. […] Additional methods can be used to evaluate if MMP-2 and TLR-2 interact directly, including other affinity-based methods (e.g., affinity chromatography or panning), competitive inhibition assays, and various visualization techniques, such as fluorescence resonance energy transfer (FRET) and others which are known in the art. […]

NF-κB pathway = assay: p50 nuclear translocation / NF-κB activation in DCs (ELISA of cytosolic and nuclear fractions); format: cell-based, human; conditions: DCs exposed to MMP-2 (5 μm/ml) or zymosan (10 μm/ml); p50 by ELISA
Description: (§2) A) DCs were exposed to MMP-2 […] or zymosan […], a known activator of NF-κB that acts via TLR2, for the indicated time. Cytosolic and nuclear fractions were isolated and p50 contents were measured by ELISA. […] C) OX40L over-expression on DCs induced by MMP-2 is inhibited by an inhibitor of NEMO, the NEMO binding domain (NBD) peptide, but not by the corresponding negative control, a NBD mutant.
(§3) PBMCs were purified from healthy-(HD) or cord blood- (CB) donors and plated at 40×10^6 cells/10 mL/dish in complete IMDM with 5% PHS. Cells were allowed to adhere for 2 h at 37° C. Non-adherent cells were removed. The monocyte-enriched fraction was supplemented with 100 UI/mL rhGMCSF and 300 UI/mL rhIL-4 (R&D Systems) on days 0, 2 and 4. Immature DCs were harvested on day 5 and matured using poly(I:C) at 5 μg/mL/10^6 DCs (Amersham). Secretion of IL-12p70, TNFα, IL-1β, IL-6, IL-8 and IL-10 was assessed on both immature and mature DCs using the Human Inflammatory Cytokine Cytometric Bead Array (BD Pharmingen).
Activation of T cell clones (10,000 cells/100 μL/well), polyclonal T cell populations (100,000 cells/100 μL/well), and DCs (50,000 cells/100 μL/well) can be determined by ELISA. IFNγ (BioSource), TNFα (BioSource), IL-4 (BioSource), IFNβ (VeriKine; PBL interferon source) and MCP-3 (DuoSet; R&D Systems) contents in supernatants were measured according to the manufacturer's instructions. p50 was measured in cytosolic and nuclear fractions (fractions separated using the nuclear separation kit from Active motif) by ELISA (Active motif).

OX40L = OX40L expression on DCs (staining); format: cell-based, human; conditions: DCs exposed for 2 days, stained for OX40L
Description: as §2, §1
Antibody to OX40L (11C3.1) was from Biolegend. Blocking antibodies to TLR-2 and TLR-6 were from Invivogen. Antibodies to GATA-3, IL-4 (8D4-8), IL-5 (JES1-39D10), IL-13 (JES10-5A2), TNFα (MAb11), IFNγ (25723.11), perforin (δG9), GranzymeB (GB11), CD40 (5C3), CD80 (L307.4), CD83 (HB15e), CD86 (IT2.2), HLA-DR (TU36), fluorescein isothiocyanate-conjugated antibodies to CD45RA (HI100) and CD45RO (UCHL1), and antibody to CD4 (RPA-T4) were purchased from BD Biosciences Pharmingen. Alexa fluor 488-conjugated antibody to IL-17 (eBio64DEC17), phycoerythrine-conjugated antibody to T-bet (4B10).
as §3

Molecule | NF-κB activation in TLR2-transfected HEK cells (human TLR-2) | p50 translocation in the nucleus (NF-κB pathway) | OX40L expression on DCs (OX40L)
zymosan [reference compound] | activate NF-κB in a TLR2-dependent manner | induce p50 translocation in the nucleus after 30 min | induce OX40L on DCs
PEX: last third of MMP-2, amino acids 445-635 of SEQ ID NO: 1; recombinant (protein, listed as Homo sapiens) YGASPDIDLGTGPTPTLGPVTPEICKQDIVFDGIAQIRGEIFFFKDRFIWRTVTPRDKPMGPLLVATFWPELPEKIDAVYEAPQEEKAVFFAGNEYWIYSASTLERGYPKPLTSLGLPPDVQRVDAAFNWSKNKKTYIFAGDKFWRYNEVKKKMDPGFPKLIADAWNAIPDNLDAVVDLQGGGHSYFFKGA | did not trigger TLR-2 activation; also recorded: do not trigger TLR2 | – | –
